The target in this assay is p38α (Homo sapiens, UniProt Q16539). Nature of the assay: p38α/MK2 cascade assay. The assay is classed as biochemical. The conditions noted are these: read-out: p38a/MK2 Cascade 40 min Pre-Incuabtion (% Inhibition): IC50. Here is the method: The ability of compounds to inhibit activated p38α was determined in a p38α/MK-2 cascade assay format. The kinase activity of p38α is determined by its ability to phosphorylate/activate nonactive MK2 (54-400). Activation of MK-2 by p38α is measured by following the phosphorylation of a MK-2 specific peptide, Hsp27 peptide (FITC-KKKALSRQLSVAA). The phosphorylation of the Hsp27 peptide was quantified using the Caliper LabChip 3000. The kinase reactions were carried out in 20 mM HEPES pH 7.5, 10 mM MgCl2, 0.0005% Tween-20, 0.01% BSA, 1 mM DTT, and 2% DMSO. The inhibitors were varied between 1000-0.05 nM, while the Hsp27 peptide substrate, MgATP, and nonactive MK-2 (54-400) were held constant at 0.5 µM, 5 µM, and 1 nM, respectively. Inhibitors were preincubated with p38α for 40 minutes prior to initiating the reaction with peptide, MgATP, and MK-2. The kinase reactions were quenched after 60 minutes by the addition of stop buffer (180 mM HEPES, 30 mM EDTA, and 0.2% Coating Reagent-3).
The above protocol assay was used to determine the IC50 values for some of the compounds in the above Examples.
IC50 values were determined for the compounds listed in Table 2, using the same p38α/MK2 cascade assay used to determine the IC50 values for the compounds in Table 1. The compounds of Table 2 were prepared using methods similar to those listed in the Examples for compounds of Table 1.

[1] abbreviates: Table 1, inhibitors preincubated with p38α for 40 minutes, phosphorylation of Hsp27 peptide by MK-2, Caliper LabChip 3000.
Where [2] appears, read: Table 2, same p38α/MK2 cascade assay, 40 minutes preincubation.

The structures appear in SMILES notation. Like-named read-outs stand apart in the source and are kept apart here.

p38α, sequence (Q16539 whole entry): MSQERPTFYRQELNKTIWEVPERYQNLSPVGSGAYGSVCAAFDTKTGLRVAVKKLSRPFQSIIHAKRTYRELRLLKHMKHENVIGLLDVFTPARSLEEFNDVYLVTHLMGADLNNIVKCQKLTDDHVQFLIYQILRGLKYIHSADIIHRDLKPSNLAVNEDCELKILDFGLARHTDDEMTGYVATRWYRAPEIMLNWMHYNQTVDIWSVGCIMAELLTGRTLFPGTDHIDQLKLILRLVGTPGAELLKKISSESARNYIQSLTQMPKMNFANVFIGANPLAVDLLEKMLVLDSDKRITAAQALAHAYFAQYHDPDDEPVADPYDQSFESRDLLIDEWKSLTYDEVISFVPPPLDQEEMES

As to `Cc1ccc(-n2nc(C(C)(C)C)cc2NC(=O)NCc2cc(F)ccc2COc2cc(C)n(-c3cc(C(=O)NCCO)ccc3C)c(=O)c2Cl)cc1` [Example 190, 3-{4-[(2-{[({[3-tert-butyl-1-(4-methylphenyl)-1H-pyrazol-5-yl]amino}carbonyl)amino]methyl}-4-fluorobenzyl)oxy]-3-chloro-6-methyl-2-oxopyridin-1(2H)-yl}-N-(2-hydroxyethyl)-4-methylbenzamide], the IC50 under setting [1] stood at 2.37 nM.
`COC(=O)c1ccc(C)c(-n2c(C)cc(OCc3ccccc3CNC(=O)Nc3cc(C(C)(C)C)nn3-c3ccc(C)cc3)c(Cl)c2=O)c1` [Example 205, methyl 3-{4-[(2-{[({[3-tert-butyl-1-(4-methylphenyl)-1H-pyrazol-5-yl]amino}carbonyl)-amino]methyl}benzyl)oxy]-3-chloro-6-methyl-2-oxopyridin-1(2H)-yl}-4-methylbenzoate]: the IC50 under setting [2] stood at 2.5 nM.
On to `COc1ccc(Cn2c(C)cc(OCc3ccccc3CNC(=O)Nc3cc(C(C)(C)C)nn3-c3ccc(O)c(Cl)c3)cc2=O)cc1` [Example 56, 1-[3-tert-butyl-1-(3-chloro-4-hydroxyphenyl)-1H-pyrazol-5-yl]-3-[2-({[1-(4-methoxybenzyl)-6-methyl-2-oxo-1,2-dihydropyridin-4-yl]oxy}methyl)benzyl]urea], for which the IC50 under setting [1] stood at 39.2 nM.
For the compound `COc1cccc(Cn2c(C)cc(OCc3ccccc3CNC(=O)Nc3cc(C(C)(C)C)nn3-c3cccc(OC)c3)c(Cl)c2=O)c1` [Example 44, 1-[3-tert-butyl-1-(3-methoxyphenyl)-1H-pyrazol-5-yl]-3-[2-({[3-chloro-1-(3-methoxybenzyl)-6-methyl-2-oxo-1,2-dihydropyridin-4-yl]oxy}methyl)benzyl]urea], under setting [1], the IC50 is 5.8 nM.
On the same count and under the same terms, to `COc1cccc(Cn2c(C)cc(OCc3ccccc3CNC(=O)Nc3cc(C(C)(C)C)nn3-c3cccc(OCCOC4CCCCO4)c3)cc2=O)c1` (stereo not drawn) [Example 36, 1-(3-tert-butyl-1-{3-[2-(tetrahydro-2H-pyran-2-yloxy)ethoxy]phenyl}-1H-pyrazol-5-yl)-3-[2-({[1-(3-methoxybenzyl)-6-methyl-2-oxo-1,2-dihydropyridin-4-yl]oxy}methyl)benzyl]urea] belongs 142 nM.
On the same count and under the same terms, the figure for `COc1cccc(-n2nc(C(C)(C)C)cc2NC(=O)NCc2cc(F)ccc2COc2cc(C)n(-c3cc(C(=O)O)ccc3C)c(=O)c2Cl)c1` [Example 189, 3-{4-[(2-{[({[3-tert-butyl-1-(3-methoxyphenyl)-1H-pyrazol-5-yl]amino}carbonyl)amino]methyl}-4-fluorobenzyl)oxy]-3-chloro-6-methyl-2-oxopyridin-1(2H)-yl}-4-methylbenzoic acid] is 2.55 nM; for `Cc1ccc(-n2nc(C(C)(C)C)cc2NC(=O)NCc2ccccc2COc2cc(C)n(Cc3ccccc3)c(=O)c2C)cc1` [Example 128-C, 1-(2-{[(1-benzyl-3,6-dimethyl-2-oxo-1,2-dihydropyridin-4-yl)oxy]methyl}benzyl)-3-[3-tert-butyl-1-(4-methylphenyl)-1H-pyrazol-5-yl]urea] it is 12.1 nM; for `COc1cccc(Cn2c(C)cc(OCc3ccc(F)cc3CNC(=O)Nc3cc(C(C)(C)C)nn3-c3ccc(Cl)c(O[Si](C)(C)C(C)(C)C)c3)c(Cl)c2=O)c1` [Example 43, 1-[3-tert-butyl-1-(3-{[tert-butyl(dimethyl)silyl]oxy}-4-chlorophenyl)-1H-pyrazol-5-yl]-3-[2-({[3-chloro-1-(3-methoxybenzyl)-6-methyl-2-oxo-1,2-dihydropyridin-4-yl]oxy}methyl)-5-fluorobenzyl]urea] it is 43.1 nM.
On to `COC(=O)c1ccc(C)c(-n2c(C)cc(OCc3ccccc3CNC(=O)Nc3cc(C(C)(C)C)nn3-c3cccc(OCCO)c3)c(Cl)c2=O)c1` [Example 209, methyl 3-[4-{[2-({[({3-tert-butyl-1-[3-(2-hydroxyethoxy)-phenyl]-1H-pyrazol-5-yl}amino)carbonyl]-amino}methyl)-benzyl]oxy}-3-chloro-6-methyl-2-oxopyridin-1(2H)-yl]-4-methylbenzoate], for which the IC50 under setting [2] worked out at 3.8 nM.
Still for that read-out and setting: to `Cc1ccc(C(=O)NCC(O)CO)cc1-n1c(C)cc(OCc2ccccc2CNC(=O)Nc2cc(C(C)(C)C)nn2-c2cccc(OCCO)c2)c(Cl)c1=O` (stereo not drawn) [Example 212, 3-[4-{[2-({[({3-tert-butyl-1-[3-(2-hydroxyethoxy)phenyl]-1H-pyrazol-5-yl}amino)carbonyl]amino}methyl)benzyl]oxy}-3-chloro-6-methyl-2-oxopyridin-1(2H)-yl]-N-(2,3-dihydroxypropyl)-4-methylbenzamide] belongs 1.8 nM.
Regarding `Cc1cc(OCc2ccccc2CNC(=O)Nc2cc(C(C)(C)C)nn2-c2cccc(F)c2)c(Br)c(=O)n1Cc1ccccc1` [Example 103, 1-(2-{[(1-benzyl-3-bromo-6-methyl-2-oxo-1,2-dihydropyridin-4-yl)oxy]methyl}benzyl)-3-[3-tert-butyl-1-(3-fluorophenyl)-1H-pyrazol-5-yl]urea], the IC50 under setting [1] stood at 2.62 nM.
`CCc1c(OCc2ccccc2CNC(=O)Nc2cc(C(C)(C)C)nn2-c2ccc(C)cc2)ncn(Cc2ccccc2)c1=O` [Example 110, 1-(2-{[(1-benzyl-5-ethyl-6-oxo-1,6-dihydropyrimidin-4-yl)oxy]methyl}benzyl)-3-[3-tert-butyl-1-(4-methylphenyl)-1H-pyrazol-5-yl]urea]: under setting [1], the IC50 was found to be 14.4 nM.
Same read-out and setting: the figure for `COc1cccc(Cn2c(C)cc(OCc3ccc(F)cc3CNC(=O)Nc3cc(C(C)(C)C)nn3-c3cccc(OC)c3)cc2=O)c1` [Example 35, 1-[3-tert-butyl-1-(3-methoxyphenyl)-1H-pyrazol-5-yl]-3-[5-fluoro-2-({[1-(3-methoxybenzyl)-6-methyl-2-oxo-1,2-dihydropyridin-4-yl]oxy}methyl)benzyl]urea] is 42.2 nM; for `Cc1ccc(-n2nc(C(C)(C)C)cc2NC(=O)NCc2cc(F)ccc2COc2cc(C)n(-c3cc(C(=O)O)ccc3C)c(=O)c2Cl)cc1` [Example 186, 3-{4-[(2-{[({[3-tert-butyl-1-(4-methylphenyl)-1H-pyrazol-5-yl]amino}carbonyl)amino]methyl}-4-fluorobenzyl)oxy]-3-chloro-6-methyl-2-oxopyridin-1(2H)-yl}-4-methylbenzoic acid] it is 4.62 nM.
Same read-out and setting: to `COc1cccc(-n2nc(C(C)(C)C)cc2NC(=O)NCc2ccccc2COc2cc(C)n(Cc3ccc(OC)cc3OC)c(=O)c2C)c1` [Example 123, 1-[3-tert-butyl-1-(3-methoxyphenyl)-1H-pyrazol-5-yl]-3-[2-({[1-(2,4-dimethoxybenzyl)-3,6-dimethyl-2-oxo-1,2-dihydropyridin-4-yl]oxy}methyl)benzyl]urea] belongs 11.1 nM; to `COc1ccc(Cn2c(C)cc(OCc3ccccc3CNC(=O)Nc3cc(C(C)(C)C)nn3-c3ccccc3)c(Br)c2=O)c(OC)c1` [Example 120, 1-[2-({[3-bromo-1-(2,4-dimethoxybenzyl)-6-methyl-2-oxo-1,2-dihydropyridin-4-yl]oxy}methyl)benzyl]-3-(3-tert-butyl-1-phenyl-1H-pyrazol-5-yl)urea], 15.5 nM; to `COc1cccc(Cn2c(C)cc(OCc3ccc(F)cc3CNC(=O)Nc3cc(C(C)(C)C)nn3-c3cccc(O)c3)c(Cl)c2=O)c1` [Example 50, 1-[3-tert-butyl-1-(3-hydroxyphenyl)-1H-pyrazol-5-yl]-3-[2-({[3-chloro-1-(3-methoxybenzyl)-6-methyl-2-oxo-1,2-dihydropyridin-4-yl]oxy}methyl)-5-fluorobenzyl]urea], 6.5 nM.
On the same count and under the same terms, the figure for `COc1ccc(Cn2c(C)cc(OCc3ccccc3CNC(=O)Nc3cc(C(C)(C)C)nn3-c3ccc(O)c(Cl)c3)c(Cl)c2=O)cc1Cl` [Example 66, 1-[3-tert-butyl-1-(3-chloro-4-hydroxyphenyl)-1H-pyrazol-5-yl]-3-[2-({[3-chloro-1-(3-chloro-4-methoxybenzyl)-6-methyl-2-oxo-1,2-dihydropyridin-4-yl]oxy}methyl)benzyl]urea] is 9.7 nM; for `COc1cc(Cn2c(C)cc(OCc3ccccc3CNC(=O)Nc3cc(C(C)(C)C)nn3-c3cccc(O)c3)c(Cl)c2=O)ccc1Cl` [Example 81, 1-[3-tert-butyl-1-(3-hydroxyphenyl)-1H-pyrazol-5-yl]-3-[2-({[3-chloro-1-(4-chloro-3-methoxybenzyl)-6-methyl-2-oxo-1,2-dihydropyridin-4-yl]oxy}methyl)benzyl]urea] it is 20.1 nM; for `CCc1c(OCc2ccccc2CNC(=O)Nc2cc(C(C)(C)C)nn2-c2ccc(C)cc2)ncn(Cc2ccc(OC)cc2)c1=O` [Example 114, 1-[3-tert-butyl-1-(4-methylphenyl)-1H-pyrazol-5-yl]-3-[2-({[5-ethyl-1-(4-methoxybenzyl)-6-oxo-1,6-dihydropyrimidin-4-yl]oxy}methyl)benzyl]urea] it is 16.3 nM.
Turning to `COc1ccc(Cn2c(C)cc(OCc3ccccc3CNC(=O)Nc3cc(C(C)(C)C)nn3-c3cccc(Cl)c3)c(Br)c2=O)c(OC)c1` [Example 242, 1-[2-({[3-bromo-1-(2,4-dimethoxybenzyl)-6-methyl-2-oxo-1,2-dihydropyridin-4-yl]oxy}methyl)benzyl]-3-[3-tert-butyl-1-(3-chlorophenyl)-1H-pyrazol-5-yl]urea], under setting [2], the IC50 turned out to be 10.8 nM.

The record behind these values is US20090270350A1, “Pyridinone Pyrazole Urea and Pyrimidinone Pyrazole Urea Derivatives” (PFIZER INC., priority 2006, published 2009).
